Data published in patent publication US20120015901A1, “METHODS AND PREPARATIONS FOR PROTECTING CRITICALLY ILL PATIENTS” (priority 2009, published 2012).
Entries after “also recorded” stand apart in the source; their conditions may differ. Read-outs that look alike come from different tables or passages of the source.

What was measured:
[1] = test system: chronologically aged yeast cultures; assay: Oxygen consumption and fractionation of upper and lower (quiescent) cells; assay type: cell-based
Description: Oxygen consumption was directly determined in 1.7 ml of chronologically aged yeast cultures transferred to a recording chamber by measuring the decline of oxygen concentration under anaerobic conditions using an oxygen electrode. Slopes were calculated over 15 min within the linear decrease of oxygen (minute 2-17) and normalized to living cells as determined by plating on YEPD agar plates.
Cells were cultured in SCD media as described in section on “Yeast Strains and Molecular Biology”. Percoll density gradient centrifugation was performed according to Allen et al. (Allen et al. (2006) J Cell Biol 174, 89-100). Cell counts for each fraction were determined using a CASY cell counter (Innovatis).

critically ill rabbits = assay: Proof-of-concept outcome study, interim analysis (15 animals per group)
Description: Based on the pilot study, two doses of spermidine (30 and 100 mg/day) were selected to continue with.
An a priori planned interim analysis was performed after having included 15 animals per group, for selecting 1 spermidine-group to be completed next to the saline-group until 58 animals per group are included. After the interim analysis, the codes of the vials were changed, so that the proceeding of the study was again carried out blinded.
Based on the pilot study, two doses of spermidine are selected (30 and 100 mg/day) to continue with.
An interim analysis was performed after having included 15 animals per group, for selecting 1 spermidine-group that will be completed next to the saline-group until 58 animals per group are included. After the interim analysis, the codes of the vials are changed, so that the proceeding of the study is again carried out blinded.

[2] = test system: parentally fed, hyperglycemic, burn-injured rabbits
Text: Our research group previously developed an animal model of critical illness that has shown to mimic the dynamic endocrine, immunological and metabolic changes characteristic of human critical illness. In this animal model we investigated the effect of critical illness on spermidine levels and the effects of spermidine-administration during critical illness on survival, organ function (clinical, biochemical, and cyto/histopathological effects), and on metabolic, inflammatory/immunological and cellular pathways. Animals were treated according to the “Principals of Laboratory Animal Care” formulated by the U.S. National Society for Medical Research and the “Guide for the Care and Use of Laboratory Animals” prepared by the National Institutes of Health. The protocol was approved by the K.U. Leuven Ethical Review Board for Animal Research. Adult male New Zealand White rabbits, weighing approximately 3 kg, were purchased from a local rabbitry, were housed individually with free access to water, hay and regular rabbit chow, and were exposed to artificial light for 14 h per day. This animal model of prolonged critical illness mimics the human condition (Weekers et al. (2003) Endocrinol 144, 5329-5338). Indeed, the critically ill animals undergo the same metabolic, immunological and endocrine disturbances and development of organ failure and muscle wasting as the human counterpart.
In our animal model, critical illness was induced by placing intravascular catheters, selectively destroying pancreatic β-cells by alloxan, followed by burn injury. […] The administration of alloxan was necessary to control both blood glucose and plasma insulin levels independently. The application of the burn wound is done 48 hours after alloxan-injection, at which time alloxan has done irreversible damage to the β-cells (selective β-cell necrosis, phase 4 after alloxan-injection). After imposing a burn wound, animals were brought to […], because this reflects most the human situation of critical illness. Non-injured, healthy rabbits served as control.
The effects of spermidine administration were investigated in parentally fed, hyperglycemic, burn-injured rabbits. The rabbits were purchased from a local rabbitry and weighed approximately 3-3.5 kg. The burn injury experiments were performed analoguous to those described above. After imposing the burn wound, animals received a continuous infusion of saline or spermidine (low dose ranging from 0.3-3 mg/day or high dose ranging from 30-300 mg/day).
At 09:00±1 h of […] (FIG. 3) animals were weighed, and under general anesthesia (30 mg/kg ketamine i.m. [Imalgene 1000; Merial, Lyon, France]; 0.15 ml/kg medetomidine i.m. [Orion, Espoo, Finland]), an ice-cold 10% solution of alloxan-monohydrate (150 mg/kg; Alloxan; Sigma-Aldrich, Bornem, Belgium) was injected slowly via a marginal ear vein. Afterward, the animals had free access to regular rabbit chow, hay and drinking water enriched with glucose to face alloxan-induced acute hypoglycemia.
At 10:00±1 h of Day 0 (FIG. 3), glycemia was measured to confirm hyperglycemia after alloxan (irreversible phase 4 after alloxan-injection). When glycemia exceeded 300 mg/dl, animals were considered eligible for the study. Under general anesthesia (see above), supplemented with 1.5 volume % isoflurane (Isoba Vet.; Schering-Plough, Brussels, Belgium) inhalation, animals were shaved and catheters were placed into the right jugular vein for intravenous infusion (4F; Vygon, Ecouen, France) and into the right carotid artery for blood sampling (5 Ch; Sherwood Medical, Tullamore, Ireland). A paravertebral block (5 ml Xylocaine 1%; Astra Zeneca, Brussels, Belgium) was performed and a full thickness burn injury of 20% body-surface area was imposed. Animals were then fitted to a homemade jacket to secure catheters and immediately returned to their cages.

[3] = preliminary results, spermidine versus saline

With `NCCCCNCCCN` [spermidine] the oxygen consumption ([1]; day 20, 4 mM spermidine) was “reduced their oxygen consumption”, the “quiescence status (upper and lower cell fractions)” value ([1]; gradient separation, 4 mM spermidine) was “resemble the status of quiescence” and the mortality (critically ill rabbits; 7 days after injury, 30 and 100 mg/day, both doses equal, placebo >50%) was “about one third; also recorded: much lower”. For the same compound, the “rise in renal p62 levels (autophagic flux marker)” value (critically ill rabbits; kidney, compared to saline-treated animals) was “attenuated”, the plasma spermidine concentration (critically ill rabbits; spermidine 30 mg/d or 100 mg/d) was “maintain or increase the plasma spermidine concentration to similar (supra)physiological levels” and the “number of animals that developed a more than 3-fold rise in normal urea levels” value (critically ill rabbits; spermidine-treated animals, saline 18.8%, P 0.0461) was 2.8%. The “number of animals that developed a more than 3-fold rise in normal creatinine levels” value (critically ill rabbits; spermidine-treated animals, saline 25%, P 0.0161) was 2.8%, the mortality ([2]; 0.3 to 3 mg spermidine per day (groups D, E; 2 groups of 7 animals)) was 28% and the mortality ([2]; 30 to 300 mg spermidine per day (groups A, B, C; 3 groups of 8 animals)) was 12.5%. For the same compound, the “plasma and tissue levels of spermidine” value ([2]; already seen with doses of 1-200 mg spermidine per kg per day) was “could restore both plasma and tissue levels of spermidine”, the survival rate ([2]; benefit most pronounced for the higher doses) was “marked improved survival rate” and the “AST levels (marker of liver dysfunction)” value ([2]; days following the initial hit) was “rapid and profound decrease in AST-levels”. The “rise in plasma creatinine (marker of kidney function)” value ([2]; high dose 30-300 mg/day, low dose 0.3-3 mg/day) was “could be prevented”, the plasma spermidine concentration ([2]; higher doses 30-300 mg/day) was “maintained or increased the plasma spermidine to (supra)normal values” and the “mortality of the animals (in words)” value ([2]; higher doses 30-300 mg/day/rabbit) was “reduce the mortality”. The plasma spermidine concentration ([2]; low doses 0.3-3 mg/day) was “minimal or no effect”, the “mortality of the animals (in words)” value ([2]; low doses 0.3-3 mg/day/rabbit) was “reduce the mortality” and the kidney protection ([2]; low doses of spermidine) was “renoprotection”. For the same compound, the “autophagy (key proteins)” value [2, 3] was “stimulation of autophagy”, the mitochondrial function [2, 3] was “improvement of mitochondrial function” and the “rise in ureum (marker of kidney dysfunction and muscle wasting)” value ([2]; spermidine infusion) was “could also be prevented”. For the same compound, the “blood pH and lactate levels during illness” value ([2]; spermidine infusion versus saline) was “maintain a normal pH and normal lactate levels”.
